What was measured:
SUMO E1 WT = SUMO E1 WT (Homo sapiens, UniProt Q9UBT2); format: biochemical; settings: 0.25 μM E1 WT, 15 minutes at 37 °C
SUMO E1 C30S mutant = biological target: T1, SUMO E1 C30S mutant (Homo sapiens, UniProt Q9UBT2, C30S); format: biochemical; settings: 0.25 μM E1 C30S, 15 minutes at 37 °C
T1 sequence (Q9UBT2 1-640 C30S): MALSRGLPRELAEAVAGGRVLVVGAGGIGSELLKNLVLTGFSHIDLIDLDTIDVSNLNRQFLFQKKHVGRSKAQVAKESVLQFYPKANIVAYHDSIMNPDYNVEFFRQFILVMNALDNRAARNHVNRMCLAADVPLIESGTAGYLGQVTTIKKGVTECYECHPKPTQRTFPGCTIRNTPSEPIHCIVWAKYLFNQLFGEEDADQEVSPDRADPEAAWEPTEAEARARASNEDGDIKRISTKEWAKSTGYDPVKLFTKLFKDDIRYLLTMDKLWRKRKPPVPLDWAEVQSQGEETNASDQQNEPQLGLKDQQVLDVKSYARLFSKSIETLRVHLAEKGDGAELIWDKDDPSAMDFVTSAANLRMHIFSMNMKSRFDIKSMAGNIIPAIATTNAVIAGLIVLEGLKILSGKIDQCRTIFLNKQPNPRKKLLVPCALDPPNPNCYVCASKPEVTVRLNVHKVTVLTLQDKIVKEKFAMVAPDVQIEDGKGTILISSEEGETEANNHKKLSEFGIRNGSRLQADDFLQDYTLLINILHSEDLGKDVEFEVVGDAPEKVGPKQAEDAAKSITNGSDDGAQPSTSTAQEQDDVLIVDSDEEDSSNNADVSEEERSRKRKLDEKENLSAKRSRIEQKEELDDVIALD
T1 sequence (Q9UBE0 1-346 partner): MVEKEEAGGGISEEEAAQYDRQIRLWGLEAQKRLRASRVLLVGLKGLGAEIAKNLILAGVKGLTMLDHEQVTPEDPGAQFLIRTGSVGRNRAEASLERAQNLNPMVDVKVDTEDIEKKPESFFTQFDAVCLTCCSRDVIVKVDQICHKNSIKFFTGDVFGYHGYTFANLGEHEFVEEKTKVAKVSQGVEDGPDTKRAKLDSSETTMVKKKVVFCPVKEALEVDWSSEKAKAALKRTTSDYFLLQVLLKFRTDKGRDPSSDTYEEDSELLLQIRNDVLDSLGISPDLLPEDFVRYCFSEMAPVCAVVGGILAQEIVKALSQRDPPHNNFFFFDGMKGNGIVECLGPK

[1] = test system: ubiquitylation (Ubc13-mediated poly-ubiquitylation); assay: Ubc13-mediated poly-ubiquitylation assay; format: biochemical, human; settings: same condition as SUMOylation assay
SUMO E1 = SUMO E1 (Homo sapiens, UniProt Q9UBT2); assay: Dialysis of inhibited SUMO E1 followed by SUMOylation assay; format: biochemical; settings: no enzyme activity up to 8 hours of dialysis
[2] = test system: SUMOylation in HCT-116 cells; assay: Western blot of SUMOylated proteins; format: cell-based, human; settings: 18 hours treatment
[3] = biological target: T2, ubiquitin activating enzyme in HCT-116 cells (Homo sapiens, UniProt P22314); assay: Western blot of ubiquitin•Ubc5 thioester formation in cells; format: cell-based; settings: HCT-116 cell lysates
T2 sequence (P22314 1-1058): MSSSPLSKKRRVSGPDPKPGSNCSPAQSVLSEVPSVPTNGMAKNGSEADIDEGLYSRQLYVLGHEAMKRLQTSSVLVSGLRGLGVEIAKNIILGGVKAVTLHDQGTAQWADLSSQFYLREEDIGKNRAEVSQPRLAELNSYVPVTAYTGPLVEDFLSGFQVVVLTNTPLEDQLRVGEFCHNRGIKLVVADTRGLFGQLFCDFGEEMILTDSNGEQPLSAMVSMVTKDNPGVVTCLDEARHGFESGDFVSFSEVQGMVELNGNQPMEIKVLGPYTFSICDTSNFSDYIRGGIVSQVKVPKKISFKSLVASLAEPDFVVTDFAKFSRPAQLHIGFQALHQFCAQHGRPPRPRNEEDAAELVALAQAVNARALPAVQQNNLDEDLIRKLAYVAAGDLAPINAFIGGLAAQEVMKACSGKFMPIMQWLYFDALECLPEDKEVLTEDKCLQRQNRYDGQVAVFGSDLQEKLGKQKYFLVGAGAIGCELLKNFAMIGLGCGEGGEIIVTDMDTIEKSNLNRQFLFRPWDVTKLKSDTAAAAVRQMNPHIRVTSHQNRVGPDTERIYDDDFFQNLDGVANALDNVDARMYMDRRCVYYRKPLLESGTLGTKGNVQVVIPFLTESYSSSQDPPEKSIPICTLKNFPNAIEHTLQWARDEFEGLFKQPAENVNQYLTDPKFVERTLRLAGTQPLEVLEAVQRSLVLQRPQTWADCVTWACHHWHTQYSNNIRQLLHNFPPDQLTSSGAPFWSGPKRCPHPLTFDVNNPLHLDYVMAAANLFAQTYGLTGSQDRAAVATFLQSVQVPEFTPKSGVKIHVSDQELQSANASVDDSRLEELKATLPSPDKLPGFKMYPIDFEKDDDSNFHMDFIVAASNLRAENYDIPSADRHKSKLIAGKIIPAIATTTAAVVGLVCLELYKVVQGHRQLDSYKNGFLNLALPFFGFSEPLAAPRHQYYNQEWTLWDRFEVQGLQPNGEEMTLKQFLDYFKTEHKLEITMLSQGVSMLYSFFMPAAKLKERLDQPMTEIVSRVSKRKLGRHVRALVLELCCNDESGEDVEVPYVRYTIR

HCT-116 cells = assay: Apoptosis by flow cytometry; format: cell-based, human; settings: 10 μM for 20 h
HCT-116 cell xenograft = assay: HCT116 xenograft in plasma esterase-deficient SCID mice; format: in vivo, mouse (Es1e/SCID)
SAE2 in HCT116 cells [4] = biological target: T3, SAE2 in HCT116 cells (Homo sapiens, UniProt Q9UBT2); assay: Cellular thermal shift assay; settings: 2 hours at 37°C, 42–56°C
SAE2 in HCT116 cells [5] = biological target: T3, SAE2 in HCT116 cells; assay: Pulse-chase assay of SAE2 degradation
SUMO E1 in HCT-116 cells = SUMO E1 in HCT-116 cells (Homo sapiens, UniProt Q9UBT2); assay: Western blot of Ubc9•SUMO thioester formation in cells; settings: HCT-116 cell lysates
SAE2 = SAE2 (Homo sapiens, UniProt Q9UBT2); assay: Western blot of SAE2 level and modification in cells with or without MG132; settings: MG132 2 hours prior, 2 hours of COH000 treatment
[6] = 10 mg/kg s.c. peritumoral once a day, 14 days

T3 sequence (Q9UBT2 whole entry, one chain of several): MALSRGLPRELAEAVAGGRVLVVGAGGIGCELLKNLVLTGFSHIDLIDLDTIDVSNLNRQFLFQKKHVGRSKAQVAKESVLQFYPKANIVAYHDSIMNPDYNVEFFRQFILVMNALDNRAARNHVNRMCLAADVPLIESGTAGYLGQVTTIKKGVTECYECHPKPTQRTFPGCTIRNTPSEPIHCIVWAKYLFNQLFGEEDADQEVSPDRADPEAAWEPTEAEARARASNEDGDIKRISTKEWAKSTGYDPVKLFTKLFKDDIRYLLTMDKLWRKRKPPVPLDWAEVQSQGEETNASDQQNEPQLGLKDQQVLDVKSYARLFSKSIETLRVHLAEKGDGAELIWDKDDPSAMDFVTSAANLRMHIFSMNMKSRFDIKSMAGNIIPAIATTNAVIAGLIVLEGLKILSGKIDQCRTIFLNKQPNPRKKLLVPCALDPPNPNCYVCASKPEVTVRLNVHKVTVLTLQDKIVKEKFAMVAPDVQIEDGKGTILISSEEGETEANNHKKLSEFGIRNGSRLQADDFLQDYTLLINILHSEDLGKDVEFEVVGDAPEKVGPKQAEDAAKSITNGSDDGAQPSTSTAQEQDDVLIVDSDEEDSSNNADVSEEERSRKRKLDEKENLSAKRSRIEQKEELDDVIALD
SUMO E1 in HCT-116 cells, sequence (Q9UBT2 whole entry, one chain of several): as above
SAE2, sequence (Q9UBT2 whole entry, one chain of several): as above
SUMO E1 WT, sequence (Q9UBT2 whole entry, one chain of several): as above
SUMO E1, sequence (Q9UBT2 whole entry, one chain of several): as above

## COC(=O)C1=C(C(=O)OC)C2([C@@H](Cc3ccc(C)cc3)Nc3ccccc3)C=CC1O2 (stereo partly drawn) [COH000, dimethyl 1-((R)-1-(phenylamino)-2-(p-tolyl)ethyl)7-oxabicyclo[2.2.1]hepta-2,5-diene-2,3-dicarboxylate]
SUMO E1 WT
  inhibition of Ubc9•SUMO thioester formation, WT enzyme: inhibited by COH000 in a dose-dependent manner
SUMO E1 C30S mutant
  inhibition of Ubc9•SUMO thioester formation, C30S mutant: the C30S mutant was not
[1]
  concentration up to which ubiquitylation was not inhibited: > 100 µM
SUMO E1
  reversibility of SUMO E1 inhibition: irreversible
[2]
  SUMOylation in cells: inhibited SUMOylation in a dose-dependent manner
[3]
  ubiquitin•Ubc5 thioester formation in cells: did not inhibit the homologous enzymes catalyzing ubiquitylation or NEDDylation
HCT-116 cells
  apoptosis: consistently induced apoptosis
HCT-116 cell xenograft; [6]
  SAE2 levels in tumor tissues (IHC): significantly reduced SAE2 levels in tumor tissues
  apoptosis in tumor tissue (TUNEL): increased apoptosis
  c-Myc protein level in tumor (IHC): The c-Myc protein level was reduced
  tumor growth: significantly inhibited tumor growth
HCT-116 cell xenograft; COH000-treated vs vehicle-treated mice
  miR-34b level in tumor tissues: miR-34b level is higher in tumor tissues
SAE2 in HCT116 cells [4]
  thermal stability of SAE2 in cells (CETSA): increased the thermal stability of the enzyme in a dose dependent manner
SAE2 in HCT116 cells [5]
  degradation of SAE2 (pulse-chase): increased the degradation of SAE2
SUMO E1 in HCT-116 cells
  SUMO•Ubc9 thioester formation in cells: inhibited only SUMO•Ubc9 thioester formation in a dose-dependent manner
SAE2
  ubiquitylation of SAE2 in cells: increased ubiquitylation of SAE2

Reference: publication PMC6524651 (Cell chemical biology, 2018)
